Activity calls are given as the source filed them.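 The calls were made as follows: active = growth-inhibition EC50 no more than tenfold above the top tested dose; inconclusive = flat fit between 30% and 70% inhibition, or unreliable fit; inactive = EC50 more than tenfold above the top tested dose.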
Each molecule was assayed on E. coli NEB5alpha growth, BacTiter-Glo luminescence, 4 h (assay: Escherichia coli growth inhibition, dose response, counter-screen for MEX-5/POS-1 RNA-binding inhibitor project, luminescence, NEB5alpha (AID 1959);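 also: pUC19-transformed ampicillin-resistant cells grown in LB with ampicillin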).

SMILES | EC50
Cc1cc(/C=C2\C(=O)NC(=O)N(Cc3ccccc3)C2=O)c(C)n1C1CC1 | > 11 µM (inactive)
O=C(O)c1ccccc1-n1c(-c2ccccc2)cc2c1CCCC2=O | > 11 µM (inactive)
N#Cc1c(N)n(-c2ccc(C(=O)O)cc2)c2nc3ccccc3nc12 | > 11 µM (inactive)
CCN1/C(=C2/SC(=S)N(NC(C)=O)C2=O)Sc2ccccc21 | > 11 µM (inactive)
Cc1ncc(CO)c(/C=N/NC(=O)c2cc(O)c(O)c(O)c2)c1O | > 11 µM (inactive)
CCn1c(=N)c(S(=O)(=O)c2ccc(F)cc2)cc2c(=O)n3ccccc3nc21 | > 11 µM (inactive)
O=C(O)C1Nc2c(C(=O)N3CCOCC3)cccc2C2C=CCC12 (stereo not drawn) | > 11 µM (inactive)
O=c1[nH]c(/C=C\c2ccc(O)c(O)c2)nc(O)c1[N+](=O)[O-] | > 11 µM (inactive)
NC(=O)CC(NC(=O)Cc1ccc(Cl)cc1)c1ccc(NC2CCCCCC2)c([N+](=O)[O-])c1 (stereo not drawn) | > 11 µM (inactive)
CCOC(=O)c1ccc(-c2ccc(C=O)o2)cc1 | > 11 µM (inactive)
CCOc1c(C=C(C#N)C#N)c2ccccc2n1CC | > 11 µM (inactive)
CC(=O)N(C1=C(Cl)C(=O)c2ccccc2C1=O)C1CCCCC1 | > 11 µM (inactive)
O=C(NNC(=O)c1ccccc1O)c1ccc(S(=O)(=O)Nc2ccccc2F)cc1 | > 11 µM (inactive)
NC(=O)Cn1cc(C=C2C(=O)NC(=O)NC2=O)c2ccccc21 | > 11 µM (inactive)
O=C(O)C1Nc2c(C(F)(F)F)ccc(Cl)c2C2C=CCC12 (stereo not drawn) | > 11 µM (inactive)
CCCCc1cn([C@@H](CCCCN)C(=O)N2CCNCC2)nn1 | > 11 µM (inactive)
COCCCn1c(N)c(-c2nc3ccccc3n2C)c2nc3ccccc3nc21 | > 11 µM (inactive)
Cc1c(NC(=O)CSc2ccc(Cl)cc2)cccc1-c1nc2cc(Cl)ccc2o1 | > 11 µM (inactive)
Cn1cc(C=C2C(=O)NC(=O)NC2=O)c2ccccc21 | > 11 µM (inactive)

SMILES | EC50
O=C(NNc1ccccc1)C(=O)NNS(=O)(=O)c1ccc([N+](=O)[O-])cc1 | > 11 µM (inactive)
COc1cccc(N2C(=O)/C(=C/c3ccc(C)o3)C(=O)NC2=S)c1 | > 11 µM (inactive)
Cc1cccc(CN2C(=O)N/C(=C/c3ccc(C)s3)C2=O)c1 | > 11 µM (inactive)
COc1ccc(/C=C2\CCCC(C(=O)C(F)(F)F)=C2O)cc1OC | > 11 µM (inactive)
Cc1ccc(NC(=O)CN2C(=O)S/C(=C\c3cccn3-c3cccc(C(=O)O)c3)C2=O)c(C)c1 | > 11 µM (inactive)
COC(=O)C1=NN(C(=O)c2ccc(C)cc2)C(O)(c2ccc(Cl)cc2)C1 (stereo not drawn) | > 11 µM (inactive)
COc1cc(-c2cc(=O)c3c(O)c(OC)c(OC)c(O)c3o2)ccc1O | > 11 µM (inactive)
COc1ccc2nc(SCC(=O)Nc3nonc3C)[nH]c2c1 | > 11 µM (inactive)
Cc1cc([N+](=O)[O-])nn1CC(=O)NNC(=S)Nc1ccc([N+](=O)[O-])cc1 | > 11 µM (inactive)
Cc1sc(/C=C2\C(=O)ON=C2c2ccccc2)cc1Br | > 11 µM (inactive)
O=C(O)c1ccccc1N/N=C/c1c(Sc2nnnn2-c2ccccc2)nc2ccccn2c1=O | > 11 µM (inactive)
COc1cc(C(CC(=O)N2CCCC2)c2c(OC)cc(OC)c3ccc(=O)oc23)cc(OC)c1OC (stereo not drawn) | > 11 µM (inactive)
O=C(O)CCC(=O)NNc1nc(-c2ccccc2)c2cc(Cl)ccc2n1 | > 11 µM (inactive)
N=c1c(C(=O)NC2CCCC2)cc2c(=O)n3ccccc3nc2n1Cc1ccccc1 | > 11 µM (inactive)
COc1ccc(C(=O)/C=C2\NCC3c4ccccc4CCN3C2=O)cc1 (stereo not drawn) | > 11 µM (inactive)
COCCNC(=O)C1Nc2ccc(OC(F)(F)F)cc2C2C=CCC12 (stereo not drawn) | > 11 µM (inactive)
CCN(CC)Cc1cc(O)c(CN(CC)CC)cc1O | > 11 µM (inactive)
CN=C1S/C(=C\c2cn(CC(=O)OC)c3ccccc23)C(=O)N1C | > 11 µM (inactive)
O=C(/C=C/c1ccco1)NC(=S)Nc1cccc(C(=O)O)c1 | > 11 µM (inactive)

From PubChem BioAssay AID1959 (Broad Institute, 2009)
